Measured values as given in US6537948B1, “Uracil compounds and use thereof” (Sumitomo Chemical Company, Limited, priority 2000, dated 2003).

Legend:
[1] = system: ivyleaf morningglory (Ipomoea hederacea); test: Test Example 2: soil surface treatment of field; type: in vivo; settings: soil surface spray, dosage 500 g/ha, 19 days after application
Excerpt: (§1) A cylindrical plastic pot having a diameter of 10 cm and a depth of 10 cm was filled with soil and then seeded with ivyleaf morningglory (Ipomoea hederacea) and velvetleaf (Abutilon theophrasti). Then, each of the compounds 1-2, 1-42, 1-48, 2-2, 2-7, 2-42, 2-45, 3-2, 3-12, 4-7, 4-85, 5-12-R, 5-12-S, 5-17, 6-2, 7-2, 7-6, 7-8, 7-12, 7-48, 7-50, 7-84, 7-118, 7-119, 7-125, 9-7, 9-27 and 9-45 was formulated into an emulsifiable concentrate according to Formulation Example 2 and then diluted to the prescribed amount with water, and the dilution was uniformly sprayed over the surface of the soil with a sprayer at a rate of 1000 liters per hectare. After the application, the test plants were grown in the greenhouse for 19 days, and the herbicidal activity was examined.

[2] = system: velvetleaf (Abutilon theophrasti); test: Test Example 2: soil surface treatment of field; type: in vivo; settings: soil surface spray, dosage 500 g/ha, 19 days after application
Excerpt: as §1

[3] = system: ivyleaf morningglory (Ipomoea hederacea); test: Test Example 1: foliar treatment of field; type: in vivo; settings: foliar spray, dosage 125 g/ha, 16 days after application
Protocol: (§2) A cylindrical plastic pot having a diameter of 10 cm and a depth of 10 cm was filled with soil and then seeded with ivyleaf morningglory (Ipomoea hederacea) and velvetleaf (Abutilon theophrasti). These test plants were grown in a greenhouse for 10 days. Then, each of compounds 1-2, 1-42, 1-45, 1-48, 2-2, 2-7, 2-42, 2-45, 3-2, 3-12, 4-7, 4-85, 5-12-R, 5-12-S, 5-17, 6-2, 7-2, 7-6, 7-8, 7-12, 7-48, 7-50, 7-84, 7-118, 7-119, 7-125, 9-7, 9-27 and 9-45 was formulated into an emulsifiable concentrate according to Formulation Example 2 and then diluted to the prescribed amount with water containing a spreading agent and the dilution was uniformly sprayed over the foliage of the test plants with a sprayer at a rate of 1000 liters per hectare. After the application, the test plants were grown in the greenhouse for 16 days, and the herbicidal activity was determined.

[4] = system: velvetleaf (Abutilon theophrasti); test: Test Example 1: foliar treatment of field; type: in vivo; settings: foliar spray, dosage 125 g/ha, 16 days after application
Protocol: as §2

melting point [°C]	Compound	growth of ivyleaf morningglory (herbicidal activity) [1]	growth of velvetleaf (herbicidal activity) [2]	growth of ivyleaf morningglory (herbicidal activity) [3]	growth of velvetleaf (herbicidal activity) [4]
71.2	COC(=O)C(C)Oc1cc(OC)nc(Oc2cc(-n3c(=O)cc(C(F)(F)F)n(C)c3=O)c(F)cc2Cl)n1 (centres unmarked) [Compound 1-42, 2-{2-chloro-4-fluoro-5-[3-methyl-2,6-dioxo-4-(trifluoromethyl)-1,2,3,6-tetrahydropyrimidin-1-yl]phenoxy}-6-methoxy-4-{1-(methoxycarbonyl)ethoxy}pyrimidine]	completely controlled	completely controlled	completely controlled	completely controlled
62.5	COC(=O)COc1cncnc1Oc1cc(-n2c(=O)cc(C(F)(F)F)n(C)c2=O)c(F)cc1Cl [Compound 3-57, 4-{2-chloro-4-fluoro-5-[3-methyl-2,6-dioxo-4-(trifluoromethyl)-1,2,3,6-tetrahydropyrimidin-1-yl]phenoxy}-5-(methoxycarbonyl)methoxypyrimidine]	–	–	–	–
52.5	COC(=O)COc1ncncc1Oc1cc(-n2c(=O)cc(C(F)(F)F)n(C)c2=O)c(F)cc1Cl [Compound 4-7, 5-{2-chloro-4-fluoro-5-[3-methyl-2,6-dioxo-4-(trifluoromethyl)-1,2,3,6-tetrahydropyrimidin-1-yl]phenoxy}-4-(methoxycarbonyl)methoxypyrimidine]	completely controlled	completely controlled	completely controlled	completely controlled
60.2	COC(=O)C(C)Oc1ccnc(Sc2cc(-n3c(=O)cc(C(F)(F)F)n(C)c3=O)c(F)cc2Cl)n1 (centres unmarked) [Compound 6-2, methyl 2-([2-{2-chloro-4-fluoro-5-[3-methyl-2,6-dioxo-4-(trifluoromethyl)-1,2,3,6-tetrahydropyrimidin-1-yl]phenylthio}pyrimidin-4-yl]oxy}propionate]	completely controlled	completely controlled	completely controlled	completely controlled
–	CCCOC(=O)COc1ncccc1Oc1cc(-n2c(=O)cc(C(F)(F)F)n(C)c2=O)c(F)cc1Cl [Compound 7-48, 3-{2-chloro-4-fluoro-5-[3-methyl-2,6-dioxo-4-(trifluoromethyl)-1,2,3,6-tetrahydropyrimidin-1-yl]phenoxy}-2-(n-propoxycarbonyl)methoxypyridine]	completely controlled	completely controlled	completely controlled	completely controlled
–	CCCCCOC(=O)COc1ncccc1Oc1cc(-n2c(=O)cc(C(F)(F)F)n(C)c2=O)c(F)cc1Cl [Compound 7-50, 3-{2-chloro-4-fluoro-5-[3-methyl-2,6-dioxo-4-(trifluoromethyl)-1,2,3,6-tetrahydropyrimidin-1-yl]phenoxy}-2-(n-pentyloxycarbonyl)methoxypyridine]	completely controlled	completely controlled	completely controlled	completely controlled
–	CONC(=O)COc1ncccc1Oc1cc(-n2c(=O)cc(C(F)(F)F)n(C)c2=O)c(F)cc1Cl [Compound 7-84, 3-{2-chloro-4-fluoro-5-[3-methyl-2,6-dioxo-4-(trifluoromethyl)-1,2,3,6-tetrahydropyrimidin-1-yl]phenoxy}-2-[(methoxyaminocarbonyl)methoxy]pyridine]	completely controlled	completely controlled	completely controlled	completely controlled
–	CC(C)=NOC(=O)COc1ncccc1Oc1cc(-n2c(=O)cc(C(F)(F)F)n(C)c2=O)c(F)cc1Cl [Compound 7-118, 3-{2-chloro-4-fluoro-5-[3-methyl-2,6-dioxo-4-(trifluoromethyl)-1,2,3,6-tetrahydropyrimidin-1-yl]phenoxy}-2-isopropylidenaminoxycarbonylmethoxypyridine]	completely controlled	completely controlled	completely controlled	completely controlled
–	COC(=O)COC(=O)COc1ncccc1Oc1cc(-n2c(=O)cc(C(F)(F)F)n(C)c2=O)c(F)cc1Cl [Compound 7-119, 3-{2-chloro-4-fluoro-5-[3-methyl-2,6-dioxo-4-(trifluoromethyl)-1,2,3,6-tetrahydropyrimidin-1-yl]phenoxy}-2-[(methoxycarbonyl)methoxycarbonylmethoxy]pyridine]	completely controlled	completely controlled	completely controlled	completely controlled
–	Cn1c(C(F)(F)F)cc(=O)n(-c2cc(Oc3cccnc3OCC(=O)OC3CCCC3)c(Cl)cc2F)c1=O [Compound 7-125, 3-{2-chloro-4-fluoro-5-[3-methyl-2,6-dioxo-4-(trifluoromethyl)-1,2,3,6-tetrahydropyrimidin-1-yl]phenoxy}-2-(c-pentyloxycarbonyl)methoxypyridine]	completely controlled	completely controlled	completely controlled	completely controlled
–	COC(=O)COc1ncccc1Oc1cc(-n2c(=O)cc(C(F)(F)F)n(C)c2=O)c(F)cc1Br [Compound 9-7, 3-{2-bromo-4-fluoro-5-[3-methyl-2,6-dioxo-4-(trifluoromethyl)-1,2,3,6-tetrahydropyrimidin-1-yl]phenoxy}-2-(methoxycarbonyl)methoxypyridine]	completely controlled	completely controlled	completely controlled	completely controlled
173.1	COC(=O)COc1ncccc1Oc1cc(-n2c(=O)cc(C(F)(F)F)n(C)c2=O)c(F)cc1C#N [Compound 9-27, 3-{2-cyano-4-fluoro-5-[3-methyl-2,6-dioxo-4-(trifluoromethyl)-1,2,3,6-tetrahydropyrimidin-1-yl]phenoxy}-2-(methoxycarbonyl)methoxypyridine]	completely controlled	completely controlled	completely controlled	completely controlled
–	COC(=O)COc1ncccc1Oc1cc(-n2c(=O)cc(C(F)(F)F)n(C)c2=O)c(F)cc1[N+](=O)[O-] [Compound 9-45, 3-{4-fluoro-5-[3-methyl-2,6-dioxo-4-(trifluoromethyl)-1,2,3,6-tetrahydropyrimidin-1-yl]-2-nitrophenoxy}-2-(methoxycarbonyl)methoxypyridine]	completely controlled	completely controlled	completely controlled	completely controlled
